{"source": "the NIST ThermoML archive (doi:10.1016/j.jct.2006.03.013)", "note": "Numbers after ± are expanded uncertainties.", "data": [{"details": "182.33 K; Liquid; Closed cell (Static) method", "units": {"vapor or sublimation pressure": "kPa"}, "values": [{"smiles": "CCCC", "note": "[butane]", "vapor or sublimation pressure": "0.419 ± 0.011"}, {"smiles": "CC", "note": "[ethane]", "vapor or sublimation pressure": "88.97 ± 0.39"}, {"smiles": "CCC", "note": "[propane]", "vapor or sublimation pressure": "6.02 ± 0.044"}]}]}
